From PMC9950205, “Efficacy, safety, and pharmacokinetics of teduglutide in adult Japanese patients with short bowel syndrome and intestinal failure: two phase III studies with an extension” (Surgery Today, 2022)

Test system: adult Japanese patients with SBS-IF
Assay: Parenteral support (PS) requirements in phase III studies TED-C14-004, SHP633-306 and extension SHP633-307, teduglutide 0.05 mg/kg SC once daily
Format: in vivo, human
Details: for Patients with reduction in weekly PS volume of ≥ 20% from baseline at both weeks 20 and 24: 0.05 mg/kg SC once daily; for Patients whose PS volume decreased by ≥ 20%: 0.05 mg/kg/day
Method: As in the previous STEPS-1 study, patients participating in the core studies (TED-C14-004 and SHP633-306) underwent an optimization (2–8 weeks) and stabilization (4–8 weeks) period before initiation of treatment with teduglutide, during which PS was adjusted with the goal of achieving a stable target urine output of 1.0–2.0 L/day. All participating patients received teduglutide 0.05 mg/kg SC once daily throughout these three studies. PS was adjusted according to an algorithm based on the change from baseline in urine output and other assessments of fluid balance and nutrition status; the PS adjustment algorithm required reductions in PS if the urine output rose more than 10% above baseline. Patients had study visits at weeks 2 and 4, after which visits were held monthly during TED-C14-004 and SHP633-306. During SHP633-307, patients from SHP633-306 had monthly study visits throughout the 24 total months of treatment and then at 3-month intervals thereafter, and patients from TED-C14-004 had visits at 3-month intervals. The end-of-study assessments for SHP633-306 and TED-C14-004 were combined with the first visit of SHP633-307. SHP633-307 is ending soon with the approval of teduglutide in Japan.
Efficacy endpoints were defined in an analogous manner to previous pivotal studies. These included a clinically meaningful reduction in weekly PS volume of ≥ 20% [17] measured between baseline and both 20 and 24 weeks for TED-C14-004 and SHP633-306, and a continued reduction in weekly PS volume of ≥ 20% from the baseline in core studies at each scheduled visit until the last visit before the interim data cut-off of SHP633-307. Other efficacy endpoints included changes in absolute and percentage weekly PS volumes from the baseline in the core studies at each study visit, the number of days per week of PS, the number of patients who achieved enteral autonomy at the end of treatment or the data cut-off, and the changes in plasma citrulline levels from baseline in the core studies. The primary efficacy data were derived from patient diaries and compared against investigator-prescribed data captured in electronic case report forms.
Efficacy was evaluated between baseline and 24 weeks in TED-C14-004 and SHP633-306 and between baseline and 30 months in […]. Among patients who entered SHP633-307, the total follow-up periods, including the prior studies, were up to 14–57 months of total teduglutide exposure for patients from SHP633-306 and TED-C14-004.
Post hoc analyses of PS volume reductions in patients with Crohn’s disease, with and without a stoma, were performed for TED-C14-004.

[1] = 12 months, patients from SHP633-306, n = 4, mean ± SD
[2] = 24 weeks, SHP633-306, n = 6, mean ± SD
[3] = 24 weeks, TED-C14-004, n = 9, mean ± SD
[4] = 30 months, TED-C14-004, n = 7, mean ± SD
[5] = 39 months, patients from TED-C14-004 in extension study, n = 5, mean ± SD
[6] = interim data cut-off, patients from TED-C14-004 in extension study, n = 3, mean ± SD
[7] = last visit before interim data cut-off of SHP633-307, patients from SHP633-306, n = 2, mean ± SD
[8] = post hoc, TED-C14-004, patients with Crohn’s disease, 24 weeks, n = 7, mean ± SD
[9] = post hoc, TED-C14-004, patients with Crohn’s disease, 30 months, n = 6, mean ± SD
[10] = post hoc, TED-C14-004, patients with a stoma, 24 weeks, n = 6, mean ± SD
[11] = post hoc, TED-C14-004, patients with a stoma, 30 months, n = 5, mean ± SD
[12] = post hoc, TED-C14-004, patients without a stoma, 24 weeks, n = 3, mean ± SD
[13] = post hoc, TED-C14-004, patients without a stoma, 30 months, n = 2, mean ± SD

**Q.** Which results are given for `CC[C@H](C)[C@H](NC(=O)[C@H](Cc1ccccc1)NC(=O)[C@H](CC(=O)O)NC(=O)[C@H](CCCNC(=N)N)NC(=O)[C@H](C)NC(=O)[C@H](C)NC(=O)[C@H](CC(C)C)NC(=O)[C@H](CC(N)=O)NC(=O)[C@H](CC(=O)O)NC(=O)[C@H](CC(C)C)NC(=O)[C@@H](NC(=O)[C@@H](NC(=O)[C@H](CC(N)=O)NC(=O)[C@H](CCSC)NC(=O)[C@H](CCC(=O)O)NC(=O)[C@H](CC(=O)O)NC(=O)[C@H](CO)NC(=O)[C@H](Cc1ccccc1)NC(=O)[C@H](CO)NC(=O)CNC(=O)[C@H](CC(=O)O)NC(=O)CNC(=O)[C@@H](N)Cc1c[nH]cn1)[C@@H](C)O)[C@@H](C)CC)C(=O)N[C@@H](CC(N)=O)C(=O)N[C@@H](Cc1c[nH]c2ccccc12)C(=O)N[C@@H](CC(C)C)C(=O)N[C@H](C(=O)N[C@@H](CCC(N)=O)C(=O)N[C@H](C(=O)N[C@@H](CCCCN)C(=O)N[C@H](C(=O)N[C@H](C(=O)N[C@@H](CC(=O)O)C(=O)O)[C@@H](C)O)[C@@H](C)CC)[C@@H](C)O)[C@@H](C)CC` [teduglutide]?
**A.** PS volume decrease from baseline [1]: 7.3 ± 6.5 L/week; PS volume percent change from baseline [1]: −51.6% ± 28.5%; PS volume decrease from baseline [2]: 3.3 ± 3.6 L/week; PS volume percent change from baseline [2]: −25.6% ± 25.5%; Reduction in PS infusion frequency from baseline [2]: 0.5 ± 1.23 days/week; PS volume decrease from baseline [3]: 4.9 ± 4.8 L/week; PS volume percent change from baseline [3]: −30.1% ± 25.9%; Reduction in PS infusion frequency from baseline [3]: 1.0 ± 1.8 days/week; PS volume decrease from baseline [4]: 8.3 ± 5.9 L/week; PS volume percent change from baseline [4]: −53.5% ± 33.9%; Reduction in PS infusion frequency from baseline [4]: 2.1 ± 3.3 days/week; PS volume decrease from baseline [5]: 7.9 ± 4.5 L/week; PS volume percent change from baseline [5]: −63.6% ± 33.9%; Patients with reduction in weekly PS volume of ≥ 20% from baseline at both weeks 20 and 24 (SHP633-306, 4 of 7 patients): 57.1%; Patients with reduction in weekly PS volume of ≥ 20% from baseline at both weeks 20 and 24 (TED-C14-004, 5 of 11 patients): 45.5%; Patients with reduction in weekly PS volume of ≥ 20% from baseline at both weeks 20 and 24 (TED-C14-004 and SHP633-306 together, 9 of 18 patients): 50%; Patients with ≥ 20% reduction in weekly PS volume from baseline (after 30 months, TED-C14-004, 6 of 7 patients): 85.7%; Patients whose PS volume decreased by ≥ 20% (at 24 weeks, TED-C14-004 and SHP633-306): 9/18; PS volume percent change from baseline (at data cut-off in SHP633-307, all patients, mean ± SD): −57.08 ± 28.49%; Patients who achieved enteral autonomy (by 30 months, TED-C14-004, 2 of 8 patients): 25%; Patients whose PS volume decreased by ≥ 20% (by data cut-off in SHP633-307): all 11 patients; Patients with ≥ 20% reduction in weekly PS volume (by the end of TED-C14-004, maintained to last visit before data cut-off in the extension study): all patients; Patients who maintained ≥ 20% reduction in PS volume from baseline at each scheduled visit to the last visit before data cut-off (extension study SHP633-307, patients from SHP633-306): All patients; Patients who achieved enteral autonomy (first 24 weeks, SHP633-306 and TED-C14-004): No patients; Reduction in PS infusion frequency from baseline (interim data cut-off of extension study, patients from SHP633-306, mean ± SD): 1.9 ± 2.3 days/week; PS volume decrease from baseline [6]: 11.5 ± 3.7 L/week; PS volume percent change from baseline [6]: −63.57% ± 32.0%; PS volume decrease from baseline [7]: 11.7 ± 8.6 L/week; PS volume percent change from baseline [7]: −76.4% ± 25.9%; PS volume decrease from baseline [8]: 5.3 ± 5.4 L/week; PS volume percent change from baseline [8]: −31.9% ± 28.9%; PS volume decrease from baseline [9]: 9.3 ± 5.8 L/week; PS volume percent change from baseline [9]: −59.4% ± 32.9%; PS volume decrease from baseline [10]: 6.1 ± 5.5 L/week; PS volume percent change from baseline [10]: −35.3% ± 30.1%; PS volume decrease from baseline [11]: 10.7 ± 5.4 L/week; PS volume percent change from baseline [11]: −65.2% ± 33.2%; PS volume decrease from baseline [12]: 2.7 ± 1.8 L/week; PS volume percent change from baseline [12]: −19.6% ± 13.1%; PS volume decrease from baseline [13]: 2.5 ± 0.2 L/week; PS volume percent change from baseline [13]: −24.3% ± 8.7%; Maintenance of enteral autonomy (the 2 patients of TED-C14-004 with enteral autonomy, throughout SHP633-307 until interim data cut-off): remained off PS; Reduction in PS infusion frequency from baseline (up to the end of the extension study, patients from TED-C14-004, mean ± SD): 2.2 ± 3.3 days/week
